From patent US20080262010A1, “CRYSTALLINE POLYMORPHS OF N-(3-(DIMETHYLAMINO)PROPYL)-4-(4-(3-FLUORO-4-METHOXYPHENYL) PYRIMIDIN-2-YLAMINO) BENZENESULFONAMIDE AS D-GLUCORONATE SALTS” (Wyeth, priority 2007, published 2008)
Counter-ions that a name gives are not always drawn.

What was measured:
[1] = Water solubility of compound 3 free base and its salts; type: physicochemical; conditions: for solubility in water: free base, thermogravimetric method
Excerpt: HCl, phosphoric acid, tartaric acid, acetic acid, D-glucoronic acid and succinic acid were used to prepare pharmaceutically acceptable salts of compound 3.
Solid or crystalline forms or polymorphs of compounds having formula I can be achieved in the free base.

[2] = Solubility of the free base of compound 3 in solvents; type: physicochemical
Method: Typically, water solubilities of the compounds in the form of their respective free base, such as compound 3, are low to none. In an exemplary embodiment, the solubility of the free base form of compound 3 in THF, DMSO and DMF was high but the solubility in group 3 solvents, or water for example, was low. For example, acetone is needed to dissolve the free base at 50° C. […] HCl, phosphoric acid, tartaric acid, acetic acid, D-glucoronic acid and succinic acid were used to prepare pharmaceutically acceptable salts of compound 3.

Row | Structure (SMILES) | solubility ([1]; salts of compound 3) [µg/mL] | water solubility ([1]; salts of compound 3) [µg/mL] | solubility in THF, DMSO and DMF ([2]; THF, DMSO and DMF) | solubility in group 3 solvents, or water ([2]; group 3 solvents, or water) | solubility in water [1] | solubility in water ([1]; listed as free base 3)
1 | COc1ccc(-c2ccnc(Nc3ccc(S(=O)(=O)NCCCN(C)C)cc3)n2)cc1F [D-glucoronate salt of compound 3] | 5170 | 5700 | – | – | – | –
2 | COc1ccc(-c2ccnc(Nc3ccc(S(=O)(=O)NCCCN(C)C)cc3)n2)cc1F [compound 3, N-(3-(dimethylamino)propyl)-4-(4-(3-fluoro-4-methoxyphenyl)pyrimidin-2-ylamino)benzenesulfonamide] | – | – | high | low | little to no water solubility | not detectable
